Experimental data taken from ChEMBL document CHEMBL4808193, “[11]-Chaetoglobosins from Pseudeurotium bakeri Induce G2/M Cell Cycle Arrest and Apoptosis in Human Cancer Cells” (J Nat Prod, 2021).

Legend:
L02 = assay: Cytotoxicity against human L02 cells assessed as reduction in cell viability by MTT assay; assay type: cell-based
MCF7 [1] = assay: Cell cycle arrest in human MCF7 cells assessed as accumulation at G2/M phase at 7.5 uM measured after 24 hrs by PI staining based flow cytometry (reference value: 18.9%); assay type: functional
A-427 [2] = assay: Cell cycle arrest in human A-427 cells assessed as accumulation at S phase at 2 uM measured after 24 hrs by PI staining based flow cytometry (reference value: 25.84%); assay type: functional
MCF7 [3] = assay: Induction of apoptosis in human MCF7 cells assessed as late apoptotic cells at 10 uM measured after 24 hrs by Annexin V-FITC/propidium iodide staining based flow cytometric analysis (reference value: 1.19%); assay type: functional
A-427 [4] = assay: Cytotoxicity against human A-427 cells assessed as reduction in cell viability by MTT assay; assay type: functional, cell-based
MCF7 [5] = assay: Induction of apoptosis in human MCF7 cells assessed as late apoptotic cells at 7.5 uM measured after 24 hrs by Annexin V-FITC/propidium iodide staining based flow cytometric analysis (reference value: 1.19%); assay type: functional
A-427 [6] = assay: Induction of apoptosis in human A-427 cells assessed as late apoptotic cells at 2.5 uM measured after 24 hrs by Annexin V-FITC/propidium iodide staining based flow cytometric analysis (reference value: 3.59%); assay type: functional
MCF7 [7] = assay: Cell cycle arrest in human MCF7 cells assessed as accumulation at G2/M phase at 10 uM measured after 24 hrs by PI staining based flow cytometry (reference value: 18.9%); assay type: functional
HCT-116 = assay: Cytotoxicity against human HCT-116 cells assessed as reduction in cell viability by MTT assay; assay type: functional, cell-based
MCF7 [8] = assay: Induction of apoptosis in human MCF7 cells assessed as early apoptotic cells at 7.5 uM measured after 24 hrs by Annexin V-FITC/propidium iodide staining based flow cytometric analysis (reference value: 3.07%); assay type: functional
MCF7 [9] = assay: Cell cycle arrest in human MCF7 cells assessed as accumulation at S phase at 10 uM measured after 24 hrs by PI staining based flow cytometry (reference value: 9.43%); assay type: functional
A-427 [10] = assay: Induction of apoptosis in human A-427 cells assessed as early apoptotic cells at 2.5 uM measured after 24 hrs by Annexin V-FITC/propidium iodide staining based flow cytometric analysis (reference value: 4.75%); assay type: functional
A-427 [11] = assay: Cell cycle arrest in human A-427 cells assessed as accumulation at G0/G1 phase at 2 uM measured after 24 hrs by PI staining based flow cytometry (reference value: 60.57%); assay type: functional
MCF7 [12] = assay: Induction of apoptosis in human MCF7 cells assessed as early apoptotic cells at 5 uM measured after 24 hrs by Annexin V-FITC/propidium iodide staining based flow cytometric analysis (reference value: 3.07%); assay type: functional
A-427 [13] = assay: Induction of apoptosis in human A-427 cells assessed as early apoptotic cells at 7.5 uM measured after 24 hrs by Annexin V-FITC/propidium iodide staining based flow cytometric analysis (reference value: 4.75%); assay type: functional
A-427 [14] = assay: Cell cycle arrest in human A-427 cells assessed as accumulation at G0/G1 phase at 4 uM measured after 24 hrs by PI staining based flow cytometry (reference value: 60.57%); assay type: functional
A-427 [15] = assay: Cell cycle arrest in human A-427 cells assessed as accumulation at S phase at 4 uM measured after 24 hrs by PI staining based flow cytometry (reference value: 25.84%); assay type: functional
MCF7 [16] = assay: Cell cycle arrest in human MCF7 cells assessed as accumulation at G0/G1 phase at 5 uM measured after 24 hrs by PI staining based flow cytometry (reference value: 61.67%); assay type: functional
A-427 [17] = assay: Induction of apoptosis in human A-427 cells assessed as late apoptotic cells at 5 uM measured after 24 hrs by Annexin V-FITC/propidium iodide staining based flow cytometric analysis (reference value: 3.59%); assay type: functional
MCF7 [18] = assay: Cell cycle arrest in human MCF7 cells assessed as accumulation at G0/G1 phase at 7.5 uM measured after 24 hrs by PI staining based flow cytometry (reference value: 61.67%); assay type: functional
A-427 [19] = assay: Cell cycle arrest in human A-427 cells assessed as accumulation at G2/M phase at 4 uM measured after 24 hrs by PI staining based flow cytometry (reference value: 13.59%); assay type: functional
A-427 [20] = assay: Induction of apoptosis in human A-427 cells assessed as early apoptotic cells at 5 uM measured after 24 hrs by Annexin V-FITC/propidium iodide staining based flow cytometric analysis (reference value: 4.75%); assay type: functional
MCF7 [21] = assay: Cell cycle arrest in human MCF7 cells assessed as accumulation at G0/G1 phase at 10 uM measured after 24 hrs by PI staining based flow cytometry (reference value: 61.67%); assay type: functional
MCF7 [22] = assay: Cell cycle arrest in human MCF7 cells assessed as accumulation at S phase at 5 uM measured after 24 hrs by PI staining based flow cytometry (reference value: 9.43%); assay type: functional
MCF7 [23] = assay: Induction of apoptosis in human MCF7 cells assessed as late apoptotic cells at 5 uM measured after 24 hrs by Annexin V-FITC/propidium iodide staining based flow cytometric analysis (reference value: 1.19%); assay type: functional
A-427 [24] = assay: Cell cycle arrest in human A-427 cells assessed as accumulation at G0/G1 phase at 6 uM measured after 24 hrs by PI staining based flow cytometry (reference value: 60.57%); assay type: functional
MCF7 [25] = assay: Induction of apoptosis in human MCF7 cells assessed as early apoptotic cells at 10 uM measured after 24 hrs by Annexin V-FITC/propidium iodide staining based flow cytometric analysis (reference value: 3.07%); assay type: functional
MCF7 [26] = assay: Cell cycle arrest in human MCF7 cells assessed as accumulation at S phase at 7.5 uM measured after 24 hrs by PI staining based flow cytometry (reference value: 9.43%); assay type: functional
MCF7 [27] = assay: Cytotoxicity against human MCF7 cells assessed as reduction in cell viability by MTT assay; assay type: functional, cell-based
A-427 [28] = assay: Cell cycle arrest in human A-427 cells assessed as accumulation at G2/M phase at 2 uM measured after 24 hrs by PI staining based flow cytometry (reference value: 13.59%); assay type: functional
HT-29 = assay: Cytotoxicity against human HT-29 cells assessed as reduction in cell viability by MTT assay; assay type: functional, cell-based
A-427 [29] = assay: Induction of apoptosis in human A-427 cells assessed as late apoptotic cells at 7.5 uM measured after 24 hrs by Annexin V-FITC/propidium iodide staining based flow cytometric analysis (reference value: 3.59%); assay type: functional
HeLa = assay: Cytotoxicity against human HeLa cells assessed as reduction in cell viability by MTT assay; assay type: functional, cell-based
MCF7 [30] = assay: Cell cycle arrest in human MCF7 cells assessed as accumulation at G2/M phase at 5 uM measured after 24 hrs by PI staining based flow cytometry (reference value: 18.9%); assay type: functional
A549 = assay: Cytotoxicity against human A549 cells assessed as reduction in cell viability by MTT assay; assay type: functional, cell-based
A-427 [31] = assay: Cell cycle arrest in human A-427 cells assessed as accumulation at G2/M phase at 6 uM measured after 24 hrs by PI staining based flow cytometry (reference value: 13.59%); assay type: functional
A-427 [32] = assay: Cell cycle arrest in human A-427 cells assessed as accumulation at S phase at 6 uM measured after 24 hrs by PI staining based flow cytometry (reference value: 25.84%); assay type: functional
HepG2 = assay: Cytotoxicity against human HepG2 cells assessed as reduction in cell viability by MTT assay; assay type: functional, cell-based

SMILES: CC1=C[C@@H]2/C=C/C[C@H](C)CC(=O)/C=C\C(=O)[C@]23C(=O)N[C@@H](Cc2c[nH]c4ccccc24)[C@@H]3[C@@H]1C
- IC50 (L02): 35.5 µM
- Activity (MCF7 [1]): 51.12%
- Activity (A-427 [2]): 20.39%
- Activity (MCF7 [3]): 9.17%
- IC50 (A-427 [4]): 6.6 µM
- Activity (MCF7 [5]): 7.41%
- Activity (A-427 [6]): 17.54%
- Activity (MCF7 [7]): 60.73%
- IC50 (HCT-116): 10.6 µM
- Activity (MCF7 [8]): 25.77%
- Activity (MCF7 [9]): 12.31%
- Activity (A-427 [10]): 12.11%
- Activity (A-427 [11]): 44.94%
- Activity (MCF7 [12]): 18.98%
- Activity (A-427 [13]): 27.61%
- Activity (A-427 [14]): 34.56%
- Activity (A-427 [15]): 21.18%
- Activity (MCF7 [16]): 37.81%
- Activity (A-427 [17]): 23.7%
- Activity (MCF7 [18]): 35%
- Activity (A-427 [19]): 44.26%
- Activity (A-427 [20]): 23.77%
- Activity (MCF7 [21]): 26.96%
- Activity (MCF7 [22]): 13.57%
- Activity (MCF7 [23]): 7.3%
- Activity (A-427 [24]): 27.41%
- Activity (MCF7 [25]): 28.62%
- Activity (MCF7 [26]): 13.87%
- IC50 (MCF7 [27]): 7.2 µM
- Activity (A-427 [28]): 34.67%
- IC50 (HT-29): 8.2 µM
- Activity (A-427 [29]): 32.81%
- IC50 (HeLa): 8.4 µM
- Activity (MCF7 [30]): 48.62%
- IC50 (A549): 7.9 µM
- Activity (A-427 [31]): 50.04%
- Activity (A-427 [32]): 22.56%
- IC50 (HepG2): 9.6 µM
